These results are taken from patent publication US20120301562A1, “COMPOSITION FOR IMPROVING BLOOD CIRCULATION, CONTAINING EXTRACT OF LINDERA OBTUSILOBA AS ACTIVE INGREDIENT” (priority 2009, published 2012).

One may read the inhibition as how much of the control response was suppressed. High values mean strong suppression, low ones little suppression.

Assay [1] relates to platelet aggregation induced by collagen. In words: Inhibition of rat washed platelet aggregation induced by collagen (turbidimetric). Type of assay: cell-based. Particulars: collagen 20 μg/mL, rat washed platelets.
Description: (§1) Rats were paralyzed with ethyl ether and blood samples were collected from abdominal aorta with a syringe containing anticoagulant 0.15 M sodium citrate whose volume ratio is 1:9 compared with blood sample volume. Blood samples were centrifuged at 200×g for 10 min to obtain platelet rich plasma (PRP) as supernatant. PRP was centrifuged at 800×g for 15 min, and precipitated platelets were washed two times with a washing buffer (137 mM NaCl, 2.9 mM KCl, 1 mM MgCl2, 5 mM glucose, 12 mM NaHCO3, 0.34 mM Na2HPO4, 1 mM EDTA, 20 mM HEPES, 0.25% BSA, pH 7.4) and suspended in a suspension buffer (suspension buffer. 137 mM NaCl, 2.9 mM KCl, 1 mM MgCl2, 5 mM glucose, 12 mM NaHCO3, 0.34 mM Na2HPO4, 20 mM HEPES, 0.25% BSA, pH 7.4) to prepare washed platelets. Platelet numbers of washed platelets used in measurement of inhibitory effect on platelet aggregation were counted with a cell counter (cell counter. Hema-vet HV950FS, Drew Scientific, USA), and washed platelets were diluted with a buffer solution so as to adjust the platelet count to 3×10^8 platelets/mL. Since platelets are aggregated at low temperatures, the foregoing experiment was carried out at room temperature.
(§2) Inhibitory effect on rat platelet aggregation was measured by turbidimetric method using an aggrerometer (Chrono-Log Co., Ltd., Havertown, Pa., USA). Washed platelets were incubated at 37° C. for 3 min and treated with various concentrations of extracts. After 2 min, platelet aggregation was induced by a platelet aggregation-inducing substance, ADP (22 μM) or collagen (20 μg/mL). Platelet aggregation was measured for 10 min and the inhibition extent of platelet aggregation was calculated. Platelets which were not treated with extracts were used for control, and the inhibition extent of platelet aggregation was calculated using the following equation.
(§3) The inhibition extent of platelet aggregation=[(A−B)/A]×100 [Equation 1] • A: aggregation % of control • B: aggregation % of extract-treated platelets
Assay [2] concerns platelet aggregation induced by ADP. In words: Inhibition of rat washed platelet aggregation induced by ADP (turbidimetric). Type of assay: cell-based. Particulars: ADP 22 μM, rat washed platelets.
Description: as §1, §2, §3
The test system of another assay is thromboembolism. The experiment in a line: Inhibitory effect on thromboembolism induced by collagen and epinephrine injected into the tail vein. It is filed as in vivo, mouse. Particulars: oral administration 1 h prior to collagen + epinephrine injection, mice. As for the experimental part:
Experimental thrombosis induction in animals was based on Diminno's method. When a platelet aggregation inducer is injected into a tail vein of a mouse, a large amount of thrombus formation is induced in the pulmonary artery to kill the animal, and by observing whether this can be recovered or not, the inhibition extent of thrombus formation is measured. A mixture solution of collagen (Chrono-Log, […]) and epinephrine (Chrono-Log, 2 μg/mouse) was prepared to be contained in 200 μL of physiological saline as a platelet aggregation inducer and injected into the tail vein of mice. Extract suspension or physiological saline was orally administered in proportion to body weight at 1 h prior to injection of the platelet aggregation inducer to investigate antithrombotic effect. The antithrombotic effect was calculated as percentage of the number of experimental animals protected from hind leg paralysis or death induced by the injection of platelet aggregation inducer. Antithrombotic effect of extracts was determined by observing whether recovery from the persistence of paralysis for 15 min or longer after injection, death, or paralysis occurred or not. The survival rate (%) of each group was calculated with the following equation.
The survival rate (%)=(D/C)×100 [Equation 2] • C: the number of animals to which collagen was precisely injected. • D: the number of survived animals among animals to which collagen was precisely injected.

For the compound `CC(=O)Oc1ccccc1C(=O)O` [Aspirin], the inhibition at 100 µg/mL in assay [1] (final concentration 0.1 mg/mL) was determined as 18.5%; in assay [2] (final concentration 0.1 mg/mL), 15.9%. For the same compound, the inhibition at 1000 µg/mL in assay [1] (final concentration 1 mg/mL) is 51.9%; in assay [2] (final concentration 1 mg/mL), 52.3%. Moreover, the inhibition at 10000 µg/mL in assay [1] (final concentration 10 mg/mL) was found to be 94.4%; in assay [2] (final concentration 10 mg/mL), 93.2%. Moreover, the “1st (survived animals/injected animals, D/C)” value in the assay with thromboembolism (1st experiment) is 15/19. Besides, the “2nd (survived animals/injected animals, D/C)” value in the assay on thromboembolism (2nd experiment) was 9/20. Also, the “3rd (survived animals/injected animals, D/C)” value in the assay on thromboembolism (3rd experiment) is 9/19. In the assay with thromboembolism ((D/C)×100), the “Survival rate (%)” value was 56%. Also, in the assay with thromboembolism (sum of three experiments), the “Sum (D/C)” value is listed as 33/58.
